Test results as given in patent US4439426A, “Semisynthetic macrolidic antibiotics, intermediate compounds for their preparation and related pharmaceutical compositions containing them” (priority 1981, dated 1984).

Key:
[1] = system: Staphylococcus aureus ATCC 6538 P LRP 39; assay: Minimum bactericidal concentration (MBC); assay type: cell-based
From the text: (§1) the bacterial power, expressed as the minimum bactericidal power (MBC) against some Gram positive aerobic stocks (table 5).

[2] = system: Streptococcus faecalis subs. zymogenes LRP 61; assay: Minimum bactericidal concentration (MBC); assay type: cell-based
From the text: as §1

[3] = system: Streptococcus pneumoniae ATCC 6303 LRP 35; assay: Minimum bactericidal concentration (MBC); assay type: cell-based
From the text: as §1

[4] = system: Corynebacterium diphteriae LRP 24; assay: Minimum bactericidal concentration (MBC); assay type: cell-based
From the text: as §1

[5] = system: Streptococcus pyogenes ATCC 8668 LRP 34; assay: Minimum bactericidal concentration (MBC); assay type: cell-based
From the text: as §1

[6] = system: Staphylococcus aureus ATCC 6538 P LRP 39; assay: Bacteriostatic power in liquid medium (MIC); assay type: cell-based; details: Staphylococcus aureus, ATCC6538, read-out: Minimum inhibiting concentration
From the text: (§2) the bacteriostatic power, expressed as the minimum inhibiting concentration (MIC) against both aerobic and anaerobic, Gram positive and Gram negative, bacterial stocks: the related results are reported in the tables 2 and 3.

[7] = system: Streptococcus pneumoniae ATCC 6303 LRP 35; assay: Bacteriostatic power in liquid medium (MIC); assay type: cell-based; details: Streptococcus pneumoniae, ATCC6303, read-out: Minimum inhibiting concentration
From the text: as §2

[8] = system: Corynebacterium diphteriae LRP 24; assay: Bacteriostatic power in liquid medium (MIC); assay type: cell-based; details: Corynebacterium, LRP24, read-out: Minimum inhibiting concentration
From the text: as §2

[9] = system: Streptococcus faecalis subs. zymogenes ATCC 12958 LRP 61; assay: Bacteriostatic power in liquid medium (MIC); assay type: cell-based; details: Enterococcus faecalis, ATCC12958, read-out: Minimum inhibiting concentration
From the text: as §2

[10] = system: Streptococcus pyogenes ATCC 8668 LRP 34; assay: Bacteriostatic power in liquid medium (MIC); assay type: cell-based; details: Streptococcus pyogenes, ATCC8668, read-out: Minimum inhibiting concentration
From the text: as §2

[11] = system: Clostridium perfrigens ATCC 3624 LRP 206; assay: microbe, parasite or virus in culture; assay type: cell-based; details: ATCC3624, solid medium, anaerobic, read-out: Minimum inhibiting concentration
From the text: as §2

Salmonella typhy LRP 8 = assay: microbe, parasite or virus in culture; assay type: cell-based; details: LRP8, solid medium, read-out: Minimum inhibiting concentration
From the text: as §2

[12] = system: Haemophilus influenzae ATCC 19418 LRP 213; assay: Bacteriostatic power in solid medium (MIC); assay type: cell-based; details: Haemophilus influenzae, ATCC19418, read-out: Minimum inhibiting concentration
From the text: as §2

[13] = system: Pseudomonas aeruginosa LRP 9; assay: Bacteriostatic power in solid medium (MIC); assay type: cell-based; details: Pseudomonas aeruginosa, LRP9, read-out: Minimum inhibiting concentration
From the text: as §2

[14] = system: Streptococcus pyogenes ATCC 8668 LRP 197; assay: Bacteriostatic power in solid medium (MIC); assay type: cell-based; details: Streptococcus pyogenes, ATCC8668, read-out: Minimum inhibiting concentration
From the text: as §2

Escherichia coli LRP 50 = assay: Bacteriostatic power in solid medium (MIC); assay type: cell-based; details: Escherichia coli, LRP50, read-out: Minimum inhibiting concentration
From the text: as §2

[15] = system: Neisseria gonorrhoeae ATCC 19424 LRP 214; assay: Bacteriostatic power in solid medium (MIC); assay type: cell-based; details: Neisseria gonorrhoeae, ATCC19424, read-out: Minimum inhibiting concentration
From the text: as §2

[16] = system: Staphylococcus aureus ATCC 14154 LRP 78; assay: Bacteriostatic power in solid medium (MIC); assay type: cell-based; details: Staphylococcus aureus, ATCC14154, read-out: Minimum inhibiting concentration
From the text: as §2

[17] = system: Mycoplasma hominis I ATCC 14027 LRP 211; assay: Bacteriostatic power in solid medium (MIC); assay type: cell-based; details: Metamycoplasma hominis, ATCC14027, read-out: Minimum inhibiting concentration
From the text: as §2

[18] = system: Bacteroides fragilis ATCC 23745 LRP 205; assay: Bacteriostatic power in solid medium (MIC); assay type: cell-based; details: Bacteroides fragilis, ATCC23745, read-out: Minimum inhibiting concentration
From the text: as §2

Shigella sonnei LRP 5 = assay: Bacteriostatic power in solid medium (MIC); assay type: cell-based; details: LRP5, read-out: Minimum inhibiting concentration
From the text: as §2

[19] = system: Streptococcus pneumoniae ATCC 6303 LRP 35; assay: Bacteriostatic power in solid medium (MIC); assay type: cell-based; details: Streptococcus pneumoniae, ATCC6303, read-out: Minimum inhibiting concentration
From the text: as §2

[20] = system: Fusobacteriumnecrophroum ATCC 27852 LRP 210; assay: Bacteriostatic power in solid medium (MIC); assay type: cell-based; details: read-out: Minimum inhibiting concentration
From the text: as §2

[21] = system: Streptococcus pneumoniae ATCC 6303 LRP 53; assay: Bacteriostatic power in solid medium (MIC); assay type: cell-based; details: Streptococcus pneumoniae, ATCC6303, read-out: Minimum inhibiting concentration
From the text: as §2

[22] = system: Micrococcus luteus ATCC 9341 LRP 6; assay: Bacteriostatic power in solid medium (MIC); assay type: cell-based; details: Micrococcus luteus, ATCC9341, read-out: Minimum inhibiting concentration
From the text: as §2

[23] = system: Staphylococcus aureus ATCC 6538P LRP 14; assay: Bacteriostatic power in solid medium (MIC); assay type: cell-based; details: Staphylococcus aureus, ATCC6538P, read-out: Minimum inhibiting concentration
From the text: as §2

[24] = system: Proteus vulgaris ATCC 6380 LRP 13; assay: Bacteriostatic power in solid medium (MIC); assay type: cell-based; details: Proteus vulgaris, ATCC6380, read-out: Minimum inhibiting concentration
From the text: as §2

[25] = system: Klelsiella pneumoniae LRP 54; assay: Bacteriostatic power in solid medium (MIC); assay type: cell-based; details: read-out: Minimum inhibiting concentration
From the text: as §2

[26] = system: Corynebacterium diphteriae LRP 24; assay: Bacteriostatic power in solid medium (MIC); assay type: cell-based; details: Corynebacterium, LRP24, read-out: Minimum inhibiting concentration
From the text: as §2

[27] = system: Streptococcus pneumoniae ATCC 6303 LRP 52; assay: Bacteriostatic power in solid medium (MIC); assay type: cell-based; details: Streptococcus pneumoniae, ATCC6303, read-out: Minimum inhibiting concentration
From the text: as §2

[28] = system: Streptococcus faecalis LRP 7; assay: Bacteriostatic power in solid medium (MIC); assay type: cell-based; details: Enterococcus faecalis, LRP7, read-out: Minimum inhibiting concentration
From the text: as §2

Bacillus subtilis LRP 25 = assay: Bacteriostatic power in solid medium (MIC); assay type: cell-based; details: Bacillus subtilis, LRP25, read-out: Minimum inhibiting concentration
From the text: as §2

[29] = system: Micrococcus luteus ATCC 15957 LRP 193; assay: Bacteriostatic power in solid medium (MIC); assay type: cell-based; details: Micrococcus luteus, ATCC15957, read-out: Minimum inhibiting concentration
From the text: as §2

[30] = system: Streptococcus faecalis subsp. zymogenes ATCC 12958 LRP 61; assay: Bacteriostatic power in solid medium (MIC); assay type: cell-based; details: Enterococcus faecalis, ATCC12958, read-out: Minimum inhibiting concentration
From the text: as §2

[31] = system: Staphylococcus aureus ATCC 6538P LRP 39; assay: Bacteriostatic power in solid medium (MIC); assay type: cell-based; details: Staphylococcus aureus, ATCC6538P, read-out: Minimum inhibiting concentration
From the text: as §2

[32] = system: Acholeplasma laidlawii ATCC 23206 LRP 204; assay: Bacteriostatic power in solid medium (MIC); assay type: cell-based; details: Acholeplasma laidlawii, ATCC23206, read-out: Minimum inhibiting concentration
From the text: as §2

[33] = system: Streptococcus pyogenes ATCC 8668 LRP 34; assay: Bacteriostatic power in solid medium (MIC); assay type: cell-based; details: Streptococcus pyogenes, ATCC8668, read-out: Minimum inhibiting concentration
From the text: as §2

[34] = Stability in acidic environment at 25° C. (half-life of initial microbiological activity); assay type: physicochemical; details: aqueous solution
Procedure: Stability in acidic environnment at 25° C. of the novel
Note: t 1/2 represents the time for reducing to one half the initial powe
of the antibiotic determined by microbiological method through diffusion
on a plate using the test stock Microccocus luteus (Sarcina lutea) ATCC

CC[C@H]1OC(=O)[C@H](C)[C@@H](O[C@H]2C[C@H](OC)[C@@H](O)[C@H](C)O2)[C@H](C)[C@@H](O[C@@H]2O[C@H](C)C[C@H](N(C)C)[C@H]2O)[C@](C)(O)C[C@](C)(F)C(=O)[C@H](C)[C@@H](O)[C@H]1C [P-80204, 3-O-oleandrosyl-5-O-desosaminyl-(8S)-8-fluoroerythronolide B]
6.25 µg/mL: MBC ([2]; Enterococcus faecalis, read-out: Minimum bactericidal concentration (MBC)) | MIC [12]
25 h: half-life ([34]; pH 2)
1.56 µg/mL: MIC [11]
3.12 µg/mL: MBC ([1]; Staphylococcus aureus, ATCC6538, read-out: Minimum bactericidal concentration (MBC)) | MIC [18] | MIC [32]
16: MBC/MIC [1] | MBC/MIC [2] | MBC/MIC [4]
25 µg/mL: MIC (Salmonella typhy LRP 8) | MIC [13] | MIC (Escherichia coli LRP 50) | MIC [16] | MIC [17] | MIC (Shigella sonnei LRP 5) | MIC [24] | MIC [25] | MIC [29]
0.049 µg/mL: MBC ([3]; Streptococcus pneumoniae, ATCC6303, read-out: Minimum bactericidal concentration (MBC)) | MIC [10] | MIC [14] | MIC [19] | MIC [21] | MIC [22] | MIC [26] | MIC [27] | MIC [33]
0.024 µg/mL: MIC [7] | MIC [8]
0.39 µg/mL: MBC ([4]; Corynebacterium, LRP24, read-out: Minimum bactericidal concentration (MBC)) | MBC ([5]; Streptococcus pyogenes, ATCC8668, read-out: Minimum bactericidal concentration (MBC)) | MIC [9] | MIC [15] | MIC [23] | MIC [28] | MIC [30] | MIC [31]
2: MBC/MIC [3]
0.195 µg/mL: MIC [6] | MIC (Bacillus subtilis LRP 25)
12.5 µg/mL: MIC [20]
100 h: half-life ([34]; pH 3)
8: MBC/MIC [5]
